Laboratory results reported in US11504396B2 (NKMAX Co., Ltd., priority 2016, dated 2022).

Columns and labels:
[1] = test system: human NK cells; assay: NK cell cycle analysis by propidium iodide staining and flow cytometry; details: FIG. 12; ponatinib 150 nM for 2 days; vs control NK cells
[2] = test system: HepG2.2.15 (hepatic cell transformed with hepatitis B virus and producing HBV); assay: Cytotoxicity of NK cells to virus-transformed cell lines (HepG2.2.15); details: NK cells treated with ponatinib 150 nM for 16 hours, co-cultured 48 hours
[3] = test system: MIA PaCa-2 (pancreatic cancer) cells; assay: Cytotoxicity of NK cells to solid tumor cells (MIA PaCa-2); type: cell-based; details: NK cells treated with 200 nM Ponatinib for 6 hrs, co-cultured 48 hrs
[4] = test system: human NK cells; details: FIG. 9; NK cells treated with ponatinib 50 or 150 nM 24 hrs, tail vein, one day after injection; vs non-treated NK cells
[5] = test system: AGS (the stomach cancer cell line)
[6] = test system: MDA-MB-231 (breast cancer) cells; assay: Cytotoxicity of NK cells to solid tumor cells (MDA-MB-231); type: cell-based; details: NK cells treated with 50 nM Ponatinib for 6 hrs, co-cultured 48 hrs
[7] = test system: HL-60 (acute promyelocytic leukemia) cells; assay: Cytotoxicity of NK cells to leukemia cells (HL-60); type: cell-based; details: NK cells treated with ponatinib 500 nM for 6 hrs, co-cultured 48 hours
Text: (§1) IL-2 is a well-known activator of effector cells such as NK cells.

[8] = test system: Huh-7.5 (hepatic cell line showing subgenomic and genomic hepatitis C virus RNA replication); assay: Cytotoxicity of NK cells to virus-transformed cell lines (Huh-7.5); details: NK cells treated with ponatinib 150 nM for 16 hours, co-cultured 48 hours
[9] = test system: SNU-387 (the liver cancer cell line); assay: 2 day cytotoxicity assay of kinase inhibitor pretreated NK cells against SNU-387; details: FIG. 7B; pretreatment 24 hrs; E:T 0.5:1, 48 hrs
[10] = test system: KG-1 (acute myelogenous leukemia) cells; assay: Cytotoxicity of NK cells to leukemia cells (KG-1); type: cell-based; details: NK cells treated with ponatinib 500 nM for 6 hrs, co-cultured 48 hours
Text: as §1

[11] = test system: THP-1 (acute monocyte leukemia) cells; assay: Cytotoxicity of NK cells to leukemia cells (THP-1); type: cell-based; details: NK cells treated with ponatinib 500 nM for 6 hrs, co-cultured 48 hours
Text: as §1

[12] = test system: MDA-MB-231 (the breast cancer cell line)
[13] = test system: AGS, the stomach cancer cell line; assay: 4 hr cytotoxic activity assay of pretreated NK cells against AGS; type: cell-based, human; details: FIG. 4; ponatinib 150 nM 24 hrs, washed; E:T 3:1, 1:1, 0.3:1 for 4 hrs
Text: (§2) NK cells (effector cells) were co-cultured with cancer cells (target cells; SNU-245 and AGS cells) at the effector-to-target (E:T) cell count ratio (3:1, 1:1, 0.3:1) for 4 hrs.

[14] = test system: SNU-245, the biliary tract cancer cell line; assay: 4 hr cytotoxic activity assay of pretreated NK cells against SNU-245; type: cell-based, human; details: FIG. 4; ponatinib 150 nM 24 hrs, washed; E:T 3:1, 1:1, 0.3:1 for 4 hrs
Text: as §2

[15] = test system: NK cells; assay: Annexin V/7-AAD analysis of NK cells co-cultured with K562 cells; type: cell-based; details: FIG. 11; ponatinib 150 nM 24 hrs, then K562 cells E:T 5:1 for 4 hrs; vs untreated cells
Description: After incubation, NK cells were collected and analyzed for cell death by annexin-V and 7-AAD analysis.

[16] = test system: SNU-245 (the biliary tract cancer cell line); assay: 2 day cytotoxicity assay against SNU-245 cells (pretreated or formulated NK cells, or ponatinib alone)
[17] = FIG. 5, high concentrations of ponatinib, 24 hrs, E:T 0.5:1 for 2 days
[18] = FIG. 8, ponatinib 150 nM 24 hrs, washed, E:T 0.5:1 for 2 days
[19] = FIG. 8, ponatinib added to target cells without NK cells, 2 days

## Cc1ccc(C(=O)Nc2ccc(CN3CCN(C)CC3)c(C(F)(F)F)c2)cc1C#Cc1cnc2cccnn12 [Ponatinib, 3-(2-imidazo[1,2-b]pyridazin-3-ylethynyl)-4-methyl-N-[4-[(4-methylpiperazin-1-yl)methyl]-3-(trifluoromethyl)phenyl]benzamide]
[1]
  fraction of G0/G1 phases of NK cells: concomitant decrease
  fraction of S and G2/M phases of NK cells: increased
[2]; E:T = 0.1:1, With IL-2
  Cytotoxicity of NK Cells to HepG2.2.15 Cells: 75%
[2]; E:T = 0.1:1, Without IL-2
  Cytotoxicity of NK Cells to HepG2.2.15 Cells: 59%
[2]; E:T = 0.5:1, With IL-2
  Cytotoxicity of NK Cells to HepG2.2.15 Cells: 88%
[2]; E:T = 0.5:1, Without IL-2
  Cytotoxicity of NK Cells to HepG2.2.15 Cells: 74%
[3]; E:T = 0.1:1, With IL-2
  Cytotoxicity of NK Cells to MIA PaCa-2 Cells: 66 ± 5%
[3]; E:T = 0.1:1, Without IL-2
  Cytotoxicity of NK Cells to MIA PaCa-2 Cells: 43 ± 8%
[3]; E:T = 0.5:1, With IL-2
  Cytotoxicity of NK Cells to MIA PaCa-2 Cells: 100 ± 0%
[3]; E:T = 0.5:1, Without IL-2
  Cytotoxicity of NK Cells to MIA PaCa-2 Cells: 78 ± 2%
[4]
  total human NK cells in blood of injected mice: more human NK cells
  viability of human NK cells in blood of injected mice: higher viability
[5]; [17]
  cytotoxic activity of ponatinib-pretreated NK cells against AGS: decreased
[5]; [18]
  viability of AGS cancer cells co-cultured with NK cells pretreated with ponatinib: significantly decreased
[5]; [19]
  cytotoxic activity of ponatinib treatment alone against AGS: did not show cytotoxic activity
[6]; E:T = 0.1:1, With IL-2
  Cytotoxicity of NK Cells to MDA-MB-231 Cells: 28 ± 5%
[6]; E:T = 0.1:1, Without IL-2
  Cytotoxicity of NK Cells to MDA-MB-231 Cells: 34 ± 4%
[6]; E:T = 0.5:1, With IL-2
  Cytotoxicity of NK Cells to MDA-MB-231 Cells: 59 ± 8%
[6]; E:T = 0.5:1, Without IL-2
  Cytotoxicity of NK Cells to MDA-MB-231 Cells: 54 ± 8%
[7]; E:T = 0.1:1, With IL-2
  Cytotoxicity of NK Cells to HL-60 Cells: 76 ± 9%
[7]; E:T = 0.1:1, Without IL-2
  Cytotoxicity of NK Cells to HL-60 Cells: 13 ± 3%
[7]; E:T = 1:1, With IL-2
  Cytotoxicity of NK Cells to HL-60 Cells: 98 ± 2%
[7]; E:T = 1:1, Without IL-2
  Cytotoxicity of NK Cells to HL-60 Cells: 89 ± 4%
[8]; E:T = 0.1:1, W/IL-2
  Cytotoxicity of NK Cells to Hur-7.5 Cells: 76%
[8]; E:T = 0.1:1, W/O IL-2
  Cytotoxicity of NK Cells to Hur-7.5 Cells: 48%
[8]; E:T = 0.5:1, W/IL-2
  Cytotoxicity of NK Cells to Hur-7.5 Cells: 96%
[8]; E:T = 0.5:1, W/O IL-2
  Cytotoxicity of NK Cells to Hur-7.5 Cells: 78%
[9]
  anti-cancer cytotoxicity of kinase inhibitor pretreated NK cells against SNU-387 vs untreated NK cells: higher anti-cancer cytotoxicity
[10]; E:T = 0.1:1, With IL-2
  Cytotoxicity of NK Cells to KG-1 Cells: 93 ± 1%
[10]; E:T = 0.1:1, Without IL-2
  Cytotoxicity of NK Cells to KG-1 Cells: 81 ± 1%
[10]; E:T = 1:1, With IL-2
  Cytotoxicity of NK Cells to KG-1 Cells: 99 ± 1%
[10]; E:T = 1:1, Without IL-2
  Cytotoxicity of NK Cells to KG-1 Cells: 99 ± 1%
[11]; E:T = 0.1:1, With IL-2
  Cytotoxicity of NK Cells to THP-1 Cells: 79 ± 4%
[11]; E:T = 0.1:1, Without IL-2
  Cytotoxicity of NK Cells to THP-1 Cells: 20 ± 1%
[11]; E:T = 1:1, With IL-2
  Cytotoxicity of NK Cells to THP-1 Cells: 99 ± 0%
[11]; E:T = 1:1, Without IL-2
  Cytotoxicity of NK Cells to THP-1 Cells: 83 ± 1%
[12]; [17]
  cytotoxic activity of ponatinib-pretreated NK cells against MDA-MB-231: decreased
[12]; [18]
  viability of MDA-MB-231 cancer cells co-cultured with NK cells pretreated with ponatinib: significantly decreased
[12]; [19]
  cytotoxic activity of ponatinib treatment alone against MDA-MB-231: did not show cytotoxic activity
[13]
  cytotoxic activity of pretreated NK cells against AGS: strongly enhanced cytotoxicity
[14]
  cytotoxic activity of pretreated NK cells against SNU-245: strongly enhanced cytotoxicity
[15]
  apoptotic NK cell population (Annexin V+/7-AAD− and Annexin V+/7-AAD+): significantly reduced
  necrotic NK cell population (Annexin V−/7-AAD+): significantly reduced
[16]; FIG. 7A, pretreatment 24 hrs, E:T 0.5:1, 48 hrs
  anti-cancer cytotoxicity of kinase inhibitor pretreated NK cells against SNU-245 vs untreated NK cells: higher anti-cancer cytotoxicity
[16]; [18]
  viability of SNU-245 cancer cells co-cultured with NK cells pretreated with ponatinib: significantly decreased
[16]; [19]
  cytotoxic activity of ponatinib treatment alone against SNU-245: did not show cytotoxic activity
